In ChEMBL document CHEMBL5038586, “Thiazolidinedione "Magic Bullets" Simultaneously Targeting PPARγ and HDACs: Design, Synthesis, and Investigations of their In Vitro and In Vivo Antitumor Effects” (J Med Chem, 2021):
Active and inactive are the calls of the source. No cut-off for these calls is given here.

Experiments:
[1] = target: T1, Histone deacetylase 4 (Homo sapiens, UniProt P56524); experiment: Inhibition of recombinant human HDAC4 using Boc-Lys (trifluoroacetyl)-AMC as substrate preincubated for 1 hr followed by substrate addition and measured after 1 hr by micro plate reader analysis
T1 sequence (P56524 whole entry): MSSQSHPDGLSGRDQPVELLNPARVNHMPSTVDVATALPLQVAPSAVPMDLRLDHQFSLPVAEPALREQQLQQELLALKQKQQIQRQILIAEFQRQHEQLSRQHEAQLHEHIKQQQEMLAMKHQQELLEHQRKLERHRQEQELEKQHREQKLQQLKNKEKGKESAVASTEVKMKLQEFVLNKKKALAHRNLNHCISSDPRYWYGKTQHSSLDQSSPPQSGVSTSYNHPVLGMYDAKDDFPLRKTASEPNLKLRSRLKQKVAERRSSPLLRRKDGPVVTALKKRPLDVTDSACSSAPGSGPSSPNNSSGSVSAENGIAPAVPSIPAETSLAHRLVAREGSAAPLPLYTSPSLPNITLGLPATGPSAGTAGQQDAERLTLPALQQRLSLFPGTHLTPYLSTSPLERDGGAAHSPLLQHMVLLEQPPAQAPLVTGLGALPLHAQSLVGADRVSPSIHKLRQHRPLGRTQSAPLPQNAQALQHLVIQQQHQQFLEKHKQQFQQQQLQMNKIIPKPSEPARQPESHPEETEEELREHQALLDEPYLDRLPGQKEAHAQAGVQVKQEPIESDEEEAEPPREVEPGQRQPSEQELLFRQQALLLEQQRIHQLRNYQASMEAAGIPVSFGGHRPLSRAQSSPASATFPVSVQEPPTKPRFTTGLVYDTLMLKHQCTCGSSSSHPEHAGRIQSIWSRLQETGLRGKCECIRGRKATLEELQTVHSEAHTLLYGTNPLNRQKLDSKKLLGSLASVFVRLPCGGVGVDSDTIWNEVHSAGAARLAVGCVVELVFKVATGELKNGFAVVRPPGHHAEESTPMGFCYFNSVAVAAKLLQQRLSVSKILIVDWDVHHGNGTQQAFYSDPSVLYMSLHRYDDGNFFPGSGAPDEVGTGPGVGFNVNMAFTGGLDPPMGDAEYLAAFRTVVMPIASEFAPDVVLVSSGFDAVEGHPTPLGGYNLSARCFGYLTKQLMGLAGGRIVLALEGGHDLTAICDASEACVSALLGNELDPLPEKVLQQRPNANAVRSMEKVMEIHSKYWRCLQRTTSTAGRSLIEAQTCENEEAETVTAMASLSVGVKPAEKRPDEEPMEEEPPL

[2] = target: T2, Histone deacetylase 8 (Homo sapiens, UniProt Q9BY41); experiment: Inhibition of recombinant human HDAC8 using Boc-Lys (trifluoroacetyl)-AMC as substrate preincubated for 1 hr followed by substrate addition and measured after 1 hr by micro plate reader analysis
T2 sequence (Q9BY41 whole entry): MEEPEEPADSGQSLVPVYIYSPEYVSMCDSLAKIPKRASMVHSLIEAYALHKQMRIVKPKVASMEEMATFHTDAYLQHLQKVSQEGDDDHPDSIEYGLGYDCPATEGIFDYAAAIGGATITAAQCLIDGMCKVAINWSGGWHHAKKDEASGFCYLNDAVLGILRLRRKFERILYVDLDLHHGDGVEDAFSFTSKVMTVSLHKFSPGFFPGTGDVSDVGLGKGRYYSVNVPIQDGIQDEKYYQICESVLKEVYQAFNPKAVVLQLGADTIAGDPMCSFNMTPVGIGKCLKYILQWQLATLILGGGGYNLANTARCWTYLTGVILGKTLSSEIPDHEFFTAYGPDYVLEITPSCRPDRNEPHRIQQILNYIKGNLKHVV

[3] = target: T3, Histone deacetylase 8 (Homo sapiens) (UniProt Q9BY41); experiment: Inhibition of recombinant human HDAC8 using Boc-Lys (trifluoroacetyl)-AMC as substrate ay 35 uM preincubated for 1 hr followed by substrate addition and measured after 1 hr by micro plate reader analysis
T3 sequence (whole entry): T2 sequence (Q9BY41 whole entry)

[4] = target: T1, Histone deacetylase 4; experiment: Inhibition of recombinant human HDAC4 using Boc-Lys (trifluoroacetyl)-AMC as substrate ay 35 uM preincubated for 1 hr followed by substrate addition and measured after 1 hr by micro plate reader analysis
[5] = tested on: CCRF-CEM; experiment: Cytotoxicity against human CEM cells assessed as cell death incubated for 20 hrs measured by DNS assay; type: functional
[6] = tested on: HeLa; experiment: Cytotoxicity against human HeLa cells assessed as cell death incubated for 20 hrs measured by DNS assay; type: functional
[7] = tested on: SH-SY5Y; experiment: Cytotoxicity against human SH-SY5Y cells assessed as cell death incubated for 20 hrs measured by DNS assay; type: functional
[8] = Selectivity index, ratio of CC50 for human HS-27 cells to CC50 for human HeLa cells; type: functional
[9] = Selectivity index, ratio of CC50 for human HS-27 cells to CC50 for human MDA-MB-231 cells; type: functional
[10] = Selectivity index, ratio of CC50 for human HS-27 cells to CC50 for human SH-SY5Y cells; type: functional
[11] = tested on: MDA-MB-231; experiment: Cytotoxicity against human MDA-MB-231 cells assessed as cell death incubated at 10 uM for 20 hrs measured by DNS assay; type: functional
[12] = tested on: HL-60; experiment: Cytotoxicity against human HL-60 cells assessed as cell death incubated at 10 uM for 20 hrs measured by DNS assay; type: functional
[13] = tested on: MDA-MB-231; experiment: Cytotoxicity against human MDA-MB-231 cells assessed as cell death incubated for 20 hrs measured by DNS assay; type: functional
[14] = tested on: SH-SY5Y; experiment: Cytotoxicity against human SH-SY5Y cells assessed as cell death incubated at 10 uM for 20 hrs measured by DNS assay; type: functional
[15] = tested on: CCRF-CEM; experiment: Cytotoxicity against human CEM cells assessed as cell death incubated at 10 uM for 20 hrs measured by DNS assay; type: functional
[16] = tested on: Ramos; experiment: Cytotoxicity against human Ramos cells assessed as cell death incubated for 20 hrs measured by DNS assay; type: functional
[17] = tested on: Ramos; experiment: Cytotoxicity against human Ramos cells assessed as cell death incubated at 10 uM for 20 hrs measured by DNS assay; type: functional
[18] = Selectivity index, ratio of CC50 for human HS-27 cells to CC50 for human Ramos cells; type: functional
[19] = tested on: HeLa; experiment: Cytotoxicity against human HeLa cells assessed as cell death incubated at 10 uM for 20 hrs measured by DNS assay; type: functional
[20] = tested on: HS27; experiment: Cytotoxicity against human HS-27 cells assessed as cell death incubated at 10 uM for 20 hrs measured by DNS assay; type: toxicity, cell-based; conditions: hs27, 20 h
[21] = Selectivity index, ratio of CC50 for human HS-27 cells to CC50 for human CEM cells; type: functional
[22] = Toxicity in SCID mouse xenografted with human CEM cells assessed as effect on body weight at 20 mg/kg, ip; type: organism-based, CCRF-CEM; conditions: in vivo
[23] = tested on: HS27; experiment: Cytotoxicity against human HS-27 cells assessed as cell death incubated for 20 hrs measured by DNS assay; type: toxicity, cell-based; conditions: hs27, 20 h
[24] = Toxicity in SCID mouse xenografted with human CEM cells assessed as behavioral changes at 50 mg/kg, ip; type: organism-based, CCRF-CEM; conditions: in vivo
[25] = Toxicity in SCID mouse xenografted with human CEM cells assessed as effect on body weight at 50 mg/kg, ip; type: organism-based, CCRF-CEM; conditions: in vivo
[26] = tested on: CCRF-CEM; experiment: Cytotoxicity against human CEM cells assessed as cell death incubated at 50 uM for 20 hrs measured by DNS assay; type: functional

SMILES	IC50 [1]	IC50 [2]	inhibition [3]	inhibition [4]	further results
Cc1cccc2sc(NC(=O)COc3ccc4cc(/C=C5/SC(=O)NC5=O)ccc4c3)nc12	1.2 µM	5.8 µM	Active	Active	
O=C(CN1C(=O)S/C(=C/c2ccccn2)C1=O)Nc1nc2ccccc2s1		9.3 µM			
O=C(CCCCCCC(=O)Nc1ccccc1)NO [VORINOSTAT]					CC50 [5]: 2.5 µM; CC50 [6]: 2.8 µM
O=C(COc1ccc2cc(/C=C3/SC(=O)NC3=O)ccc2c1)Nc1ccccc1Oc1ccccc1	5.2 µM	> 50 µM	Active	Active	CC50 [7]: 52.3 µM; Selectivity Index [8]: >10; Selectivity Index [9]: >10; Selectivity Index [10]: >10; Activity [11]: >40%; Activity [12]: 0%; CC50 [13]: 10.3 µM; Activity [14]: >40%; Activity [15]: 40.24%; CC50 [16]: 10 µM; CC50 [6]: 10.2 µM; Activity [17]: >40%; Selectivity Index [18]: >10
O=C(COc1ccc2cc(/C=C3/SC(=O)NC3=O)ccc2c1)Nc1cccc(Cl)c1	3.8 µM	> 50 µM	Active	Active	CC50 [5]: 10.6 µM; Activity [11]: 2.84%; Activity [12]: 27.58%; Activity [14]: 10.79%; Activity [19]: 29.68%; Activity [15]: >40%; CC50 [16]: 9.1 µM; Activity [20]: 22.56%; Activity [17]: >40%; Selectivity Index [18]: >10; Selectivity Index [21]: >10
COc1cccc2c1C(=O)c1c(O)c3c(c(O)c1C2=O)C[C@@](O)(C(=O)CO)C[C@@H]3O[C@H]1C[C@H](N)[C@H](O)[C@H](C)O1 [DOXORUBICIN]					Activity [22]: Non-Toxic
O=C(COc1ccc2cc(/C=C3/SC(=O)NC3=O)ccc2c1)Nc1cccc(C(F)(F)F)c1	2.5 µM	> 50 µM	Active	Active	Activity [11]: 5.96%; Activity [12]: 19.55%; Activity [14]: 0%; Activity [19]: 39.09%; Activity [15]: 25.87%; CC50 [16]: 6.2 µM; Activity [17]: >40%; Selectivity Index [18]: >10
CCOc1ccc2nc(NC(=O)COc3ccc4cc(/C=C5/SC(=O)NC5=O)ccc4c3)sc2c1	3.6 µM	17 µM	Active	Active	
O=C(COc1ccc2cc(/C=C3/SC(=O)NC3=O)ccc2c1)Nc1c(F)cc(F)cc1Br	1.1 µM	> 50 µM			CC50 [7]: 21.8 µM; CC50 [23]: 39.9 µM; CC50 [5]: 9.6 µM; CC50 [13]: 9.8 µM; CC50 [16]: 9.6 µM; CC50 [6]: 10.4 µM
Cc1cccc(NC(=O)COc2ccc3cc(/C=C4/SC(=O)NC4=O)ccc3c2)n1	1.1 µM	7.5 µM	Active	Active	
Cc1cc(Br)ccc1NC(=O)COc1ccc2cc(/C=C3/SC(=O)NC3=O)ccc2c1	0.55 µM	7.4 µM			CC50 [7]: 91.1 µM; CC50 [6]: 9.9 µM
Cc1cc(NC(=O)COc2ccc3cc(/C=C4/SC(=O)NC4=O)ccc3c2)no1	1.7 µM	> 50 µM	Active	Active	
COc1ccc(NC(=O)COc2ccc3cc(/C=C4/SC(=O)NC4=O)ccc3c2)cc1	4.7 µM	> 50 µM	Active	Active	
O=C(COc1ccc2cc(/C=C3/SC(=O)NC3=O)ccc2c1)Nc1ccccc1	2.1 µM	4.5 µM	Active	Active	
O=C(COc1ccc2cc(/C=C3/SC(=O)NC3=O)ccc2c1)Nc1cccc(F)n1	0.84 µM	7.2 µM	Active	Active	
O=C(COc1ccc2cc(/C=C3/SC(=O)NC3=O)ccc2c1)Nc1ccc([N+](=O)[O-])cc1	1.7 µM	4 µM			CC50 [13]: 55.8 µM
O=C(COc1ccc2cc(/C=C3/SC(=O)NC3=O)ccc2c1)Nc1nc2ccccc2s1	0.42 µM	2.7 µM	Active	Active	
O=C(COc1ccc2cc(/C=C3/SC(=O)NC3=O)ccc2c1)Nc1cc(Cl)cc(C(F)(F)F)c1	4 µM	> 50 µM	Active	Active	
O=C(COc1ccc2cc(/C=C3/SC(=O)NC3=O)ccc2c1)Nc1ccc(F)cc1F	3.9 µM	> 50 µM	Active	Active	
Cc1ccc(NC(=O)COc2ccc3cc(/C=C4/SC(=O)NC4=O)ccc3c2)cc1Cl	1.1 µM	> 50 µM	Active	Active	
Cc1ccc(NC(=O)COc2ccc3cc(/C=C4/SC(=O)NC4=O)ccc3c2)cc1	1.7 µM	9 µM			CC50 [7]: 49.5 µM; CC50 [23]: 40.2 µM; CC50 [5]: 2.8 µM; Activity [24]: Non-Toxic; CC50 [16]: 7 µM; CC50 [6]: 10.3 µM; Activity [25]: Non-Toxic
O=C(COc1ccc2cc(/C=C3/SC(=O)NC3=O)ccc2c1)Nc1ccc(Br)cc1F	1.9 µM	> 50 µM			CC50 [7]: 16 µM; CC50 [23]: 57 µM; CC50 [5]: 40.9 µM
O=C(COc1ccc2cc(/C=C3/SC(=O)NC3=O)ccc2c1)Nc1ccc(Br)c(Br)c1	4.9 µM	> 50 µM	Active	Active	
CCc1ccc(CCOc2ccc(CC3SC(=O)NC3=O)cc2)nc1 (configuration not stated) [PIOGLITAZONE]					Activity [26]: 0%; Activity [19]: 0%
O=C(COc1ccc2cc(/C=C3/SC(=O)NC3=O)ccc2c1)Nc1ccccn1	17 µM	> 50 µM	Active	Active	
O=C(COc1ccc2ccccc2c1/C=C1\SC(=O)NC1=O)Nc1ccc([N+](=O)[O-])cc1	15 µM	2.3 µM			
COc1cccc(NC(=O)COc2ccc3cc(/C=C4/SC(=O)NC4=O)ccc3c2)c1	1.6 µM	7.6 µM	Active	Active	Selectivity Index [8]: >10; Selectivity Index [9]: >10; CC50 [5]: 10.7 µM; Activity [11]: >40%; Activity [12]: 0%; CC50 [13]: 9.8 µM; Activity [14]: 0%; Activity [15]: >40%; CC50 [16]: 9.3 µM; Activity [20]: 24.69%; CC50 [6]: 10.4 µM; Activity [17]: >40%; Selectivity Index [18]: >10; Selectivity Index [21]: >10
O=C(COc1ccc2cc(/C=C3/SC(=O)NC3=O)ccc2c1)Nc1ccc(Cl)c(Cl)c1	5.5 µM	> 50 µM	Active	Active	
O=C(COc1ccc2cc(/C=C3/SC(=O)NC3=O)ccc2c1)Nc1ccc(Br)cc1	2.9 µM	16 µM			CC50 [6]: 10.1 µM
O=C(COc1ccc2cc(/C=C3/SC(=O)NC3=O)ccc2c1)Nc1ccc(F)cc1	1.6 µM	6.6 µM	Active	Active	
